Reference: patent publication US20080102497A1, “ENZYMATIC HYDROLYSIS OF STARCH” (priority 2006, published 2008)
Read-outs that look alike come from different tables or passages of the source.

Key:
[1] = biological target: T1, glucoamylase from Aspergillus Niger (Aspergillus niger, UniProt P69328); conditions: for Relative Activity: washed 5 times before enzyme, pH 5.3, 37° C., 20 min
Description: Thereafter 40 μl of the buffer and metal solution was added to 15 mg raw corn starch and the resulting mixture was pre-incubated at 20° C. for 20 minutes. The starch mixture was washed 5 times with excess buffer, followed by centrifugation, and removal of the supernatant. Then an enzyme solution containing buffer and the glucoamylase from Aspergillus niger was added to the washed starch and the reaction mixture incubated at 37° C. for 20 minutes. The control reaction mixture contained substrate, enzyme, and buffer but no manganese ion. The starch hydrolysis reaction was stopped by combining the reaction mixture with a solution containing DNSA and heating for 30 min at 85° C. The absorbance of the control and test samples was measured at 562 nm to monitor the amount of reducing sugar in each sample.

[2] = biological target: T1, glucoamylase from Aspergillus Niger; conditions: pH 5.2, 37° C., 10 min
Description: The separate reaction mixtures were incubated at 37° C. for 10 minutes. The control reaction mixture contained enzyme, buffer, and starch but no manganese ion. The starch hydrolysis reaction was stopped by combining the reaction mixture with a solution containing DNSA and heating for 30 min at 85° C. The absorbance of the control and test samples was measured at 562 nm to monitor the amount of reducing sugar in each sample.

[3] = tested on: glucoamylase from Rhizopus sp.; assay: temperature effect on conversion of raw corn starch; assay type: biochemical; conditions: 1 mM Mn^++; for % Conversion: 10 min, raw corn starch, pH 5.3
Description: An enzyme solution of the glucoamylase from Rhizopus sp. […] Thereafter, 50 μl of the enzyme solution was added to each of four samples containing 15 mg raw corn starch and incubated at 22° C., 32° C., 40° C. or 50° C., respectively, for 10 minutes.

T1 sequence (P69328 25-640): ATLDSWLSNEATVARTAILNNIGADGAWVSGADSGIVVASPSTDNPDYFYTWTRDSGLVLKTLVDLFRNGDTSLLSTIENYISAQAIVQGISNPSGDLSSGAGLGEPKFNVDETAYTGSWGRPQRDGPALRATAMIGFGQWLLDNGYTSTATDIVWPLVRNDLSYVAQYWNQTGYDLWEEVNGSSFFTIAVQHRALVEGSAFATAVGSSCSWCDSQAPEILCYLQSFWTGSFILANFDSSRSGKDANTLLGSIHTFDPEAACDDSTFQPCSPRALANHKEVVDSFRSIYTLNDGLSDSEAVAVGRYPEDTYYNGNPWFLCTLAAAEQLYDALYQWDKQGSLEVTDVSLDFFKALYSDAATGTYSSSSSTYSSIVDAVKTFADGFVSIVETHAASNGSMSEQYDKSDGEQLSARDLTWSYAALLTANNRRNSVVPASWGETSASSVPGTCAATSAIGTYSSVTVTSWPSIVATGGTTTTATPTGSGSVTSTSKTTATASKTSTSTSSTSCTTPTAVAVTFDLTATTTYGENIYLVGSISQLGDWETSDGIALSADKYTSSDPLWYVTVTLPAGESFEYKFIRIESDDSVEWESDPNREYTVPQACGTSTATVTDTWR

[Mn+2] [Mn^++, manganese ions] was tested, and the “Relative Activity” value ([1]; raw corn starch pre-incubated with 0.01 mM Mn^++) was 89.1%, the “Relative Activity” value ([1]; raw corn starch pre-incubated with 0.1 mM Mn^++) was 84.2% and the “Relative Activity” value ([1]; raw corn starch pre-incubated with 1 mM Mn^++) was 95.0%. The “Relative Activity” value ([1]; raw corn starch pre-incubated with 10 mM Mn^++) was 89.1%, the “cause of Mn^++-induced enhancement (in words)” value ([1]; starch pre-incubated with Mn^++ and washed) was “not caused by the action of Mn^++ on the starch” and the “Relative Activity” value ([2]; 0.01 mM Mn^++, cooked dent corn starch 0.5%) was 113.3%. For the same compound, the “Relative Activity” value ([2]; 0.01 mM Mn^++, cooked high-amylose V corn starch 0.5%) was 119.2%, the “Relative Activity” value ([2]; 0.01 mM Mn^++, cooked soluble corn starch 0.5%) was 119.1% and the “Relative Activity” value ([2]; 0.01 mM Mn^++, cooked waxy corn starch 0.5%) was 113.0%. For the same compound, the “Relative Activity” value ([2]; 0.1 mM Mn^++, cooked dent corn starch 0.5%) was 126.1%, the “Relative Activity” value ([2]; 0.1 mM Mn^++, cooked high-amylose V corn starch 0.5%) was 130.9% and the “Relative Activity” value ([2]; 0.1 mM Mn^++, cooked soluble corn starch 0.5%) was 129.1%. For the same compound, the “Relative Activity” value ([2]; 0.1 mM Mn^++, cooked waxy corn starch 0.5%) was 130.1%, the “Relative Activity” value ([2]; 1 mM Mn^++, cooked dent corn starch 0.5%) was 148.4% and the “Relative Activity” value ([2]; 1 mM Mn^++, cooked high-amylose V corn starch 0.5%) was 141.3%. The “Relative Activity” value ([2]; 1 mM Mn^++, cooked soluble corn starch 0.5%) was 144.8%, the “Relative Activity” value ([2]; 1 mM Mn^++, cooked waxy corn starch 0.5%) was 147.2% and the “Relative Activity” value ([2]; 10 mM Mn^++, cooked dent corn starch 0.5%) was 186.9%. For the same compound, the “Relative Activity” value ([2]; 10 mM Mn^++, cooked high-amylose V corn starch 0.5%) was 193.1%, the “Relative Activity” value ([2]; 10 mM Mn^++, cooked soluble corn starch 0.5%) was 178.3% and the “Relative Activity” value ([2]; 10 mM Mn^++, cooked waxy corn starch 0.5%) was 200.3%. The “temperature dependence of Mn^++ activation (in words)” value ([3]; 22-50° C.) was “occurs at a wide temperature range”, the “% Conversion” value ([3]; 22° C.) was 0.026% and the “% Conversion” value ([3]; 32° C.) was 0.064%. For the same compound, the “% Conversion” value ([3]; 40° C.) was 0.152% and the “% Conversion” value ([3]; 50° C.) was 0.274%.
